Reference: patent US20250186448A1 (Mezzion Pharma Co., Ltd., priority 2021, published 2025)
Values joined by “and” are separate entries in the source; they are usually repeats but may differ in a detail not shown here. Identical values can stand only once. “Also recorded” adds a separate entry of the source.

Key:
[1] = system: adolescents with Fontan physiology; test: FUEL trial: peripheral arterial tonometry (EndoPAT), log-transformed reactive hyperemia index (lnRHI); type: in vivo, human
From the text: Pulse amplitude tonometry (PAT), a FDA-approved method for assessing vascular function, is increasingly being used as an alternative measure of endothelium-dependent dilation in response to reactive hyperemia and flow-mediated dilation (FMD). The PAT device records digital pulse wave amplitude (PWA) using fingertip plethysmography. PWA can be measured continuously during three phases: a quiet baseline period, 5-min forearm occlusion, and reactive hyperemia following cuff release. Unlike FMD, PAT testing is not dependent upon a highly skilled technician and post-test analysis is largely automated. […]
The primary outcome was the change in oxygen consumption at peak exercise (max or peak VO2) from baseline to the 26-week visit. […] Safety was monitored through adverse event reports, which were collected according to a pre-specified protocol of study coordinator outreach, and through ad hoc patient and family communication with members of the study team at each site.
Baseline clinical testing completed before drug initiation included a blood draw to measure brain-type natriuretic peptide (BNP) level, a cardiopulmonary exercise test (CPET) using a standardized cycle ergometer ramp protocol, a standardized echocardiogram, and an assessment of peripheral vascular function using peripheral arterial tonometry (PAT) measured by finger cuff (EndoPAT; Itamar Medical, Israel). […]

[2] = system: adolescents with Single Ventricle Heart Disease who underwent Fontan palliation; test: FALD study: liver stiffness by MR elastography; type: in vivo, human; set-up: MRE, Post Baseline: unit not given beside the values; MRE, Change from Baseline / MRE, Baseline: unit not given here
Protocol: MR elastography uses a vibrating passive driver or “paddle” placed on the abdominal wall over the liver in order to generate in vivo shear waves. These shear waves can be tracked using an MRI modified phase contrast pulse sequence. Shear wave data is then used to generate color parameteric maps (elastograms) of liver stiffness that allow quantitative assessment (FIG. 4). […] Pairwise ICCs ranged from 0.67-0.82 when agreement was assessed between individual sequences across manufacturers (GE vs. Philips); the greatest agreement while fixing the pulse sequence was at 1.5 T using 2D GRE sequences (ICC=0.82, r=0.85). Trout […], Kohli R, Sprague […]. Prospective assessment of correlation between US acoustic radiation forced impulse and MR elastography in a pediatric population: Dispersion of US shear-wave speed measurement matters. Radiology 2016 December; 282(3): 544-552. The FALD study, ClinicalTrials.gov Identifier: NCT03430583, which is incorporated herein by reference in its entirety, was an open-label extension study that integrated with the FUEL Extension Trial. […] Both the U- cohort and the U+ cohort had liver stiffness measured by ultrasound and MR elastography (where available), and ELF biomarkers analyzed, as described above. […] The primary outcome measure of the FALD study was the range of liver stiffness in adolescents with Single Ventricle Heart Disease who underwent Fontan palliation. Secondary outcome measures included the effect of drug therapy on liver stiffness, and the effect of drug therapy on Enhanced Liver Fibrosis (ELF) score. See Clinical Trials.gov identifier NCT03430583, at p. 3. It is to be understood that present invention contemplates udenafil drug products that are therapeutically equivalent to the udenafil drug products of the present invention.

[3] = Cohort U+ (udenafil for 78 weeks), individual subject
[4] = Cohort U− (udenafil for 52 weeks), individual subject
[5] = individual subject listing, Safety Population

Compound: CCCOc1ccc(S(=O)(=O)NCCC2CCCN2C)cc1-c1nc2c(CCC)nn(C)c2c(=O)[nH]1 (centres unmarked) [Udenafil, udenafil]
- Change in lnRHI (PAT outcome), udenafil vs placebo [1]: no difference; also recorded: did not reveal a benefit
- MRE, % Change from Baseline [2, 3]: 2.863% and −2.262% and 12.04% and −0.4975% and 7.265% and −14.99% and −24.27% and 16.67% and 18.93% and 0.4975% and −29.4964% and 2.198% and −16.26% and 10.4% and −20.63% and −8.58% and −11.11% and −19.68% and −21.1704% and −12.02% and −6.235%
- MRE, Change from Baseline [2, 3]: 0.15 and −0.1 and 0.49 and −0.03 and 0.98 and 0.34 and −0.52 and −1.59 and 0.81 and 0.03 and −1.64 and 0.1 and −0.86 and 0.7 and −1.05 and −0.58 and −0.67 and −0.98 and −1.23 and −0.59 and −0.26
- MRE, Baseline ([2]; Cohort U+ (udenafil for 78 weeks), individual subject, Baseline visit): 4.42 and 5.88 and 4.07 and 6.03 (3×) and 4.68 and 3.47 and 6.55 and 4.28 and 5.56 and 3.65 and 4.55 and 5.29 and 6.73 and 5.09 and 6.76 and 4.98 and 5.81 and 4.91 and 4.17 and 5.24
- MRE, Post Baseline ([2]; Cohort U+ (udenafil for 78 weeks), individual subject, Post Baseline visit (52 week)): 5.39 and 4.32 (2×) and 6.86 and 4.56 and 6 and 5.02 and 2.95 and 4.96 and 5.09 and 6.06 and 3.92 and 4.65 and 4.43 and 7.43 and 4.04 and 6.18 and 5.36 and 4 and 4.58 and 3.91
- MRE, % Change from Baseline [2, 4]: 8.484% and 8.085%
- MRE, Change from Baseline [2, 4]: 0.61 and 0.19
- MRE, Post Baseline ([2]; Cohort U− (udenafil for 52 weeks), individual subject, Post Baseline visit (52 week)): 7.8 and 2.54
- MRE, % Change from Baseline [2, 5]: 2.488% and −28.79% and 3.632% and −2.018% and −21.1838% and 67.93% and 25.85% and 11.98% and −10.36% and 12.33% and −5.348% and 17.24% and 33.15% and −8% and −7.32%
- MRE, Change from Baseline [2, 5]: 0.1 and −1.48 and 0.15 and −0.11 and −1.36 and 3.05 and 1.22 and 0.72 and −0.43 (2×) and 0.64 and 1 and 1.2 and −0.44 and −0.53
- MRE, Post Baseline ([2]; individual subject listing, Safety Population, Post Baseline visit): 4.12 and 3.66 and 4.28 and 5.34 and 5.06 (2×) and 7.54 and 5.94 and 6.73 and 3.72 and 5.83 and 2.81 and 7.61 and 6.8 and 4.82 and 6.71
